Measurements: US20250025439A1, “DERIVATIVES OF NIFUROXAZIDE FOR USE IN THE TREATMENT OF MITOCHONDRIAL DISORDERS AND NEURODEGENERATIVE DISEASES” (priority 2021, published 2025)

Tests used:
Assay in all cases: Affinity chromatography with NFX-beads and mass spectrometry
Type in all cases: binding
Settings in all cases: spectral counts, NFX coupled beads vs beads alone, human fibroblast extracts
[1] = biological target: T1, E3 ubiquitin-protein ligase DTX3L (Homo sapiens, UniProt Q8TDB6)
T1 construct: Protein extracts from human fibroblasts were incubated with magnetic beads; endogenous in cells; host or cells: human fibroblast lysate
Description: (§1) Fibroblasts were trypsinized and washed with PBS 1× then incubated in lysis buffer on ice during 20 minutes (Lysis buffer: Tris-HCl pH 7.5 50 mM, EDTA 2 mM, Triton X-100 0.1% supplemented with anti-protease and anti-phosphatase (Complete-Mini™—Roche). After centrifugation 15 minutes, 13 000 rpm at 4° C., supernatant was conserved and the protein concentration was determined using the Pierce BCA assay kit (Thermo Fisher Scientific).
(§2) 10 μL of magnetic beads and NFX-beads were washed three times in Bead buffer before to be resuspended 100 μL of Bead buffer (Bead buffer: Tris-HCl pH 7.5 50 mM, NaCl 150 mM, Triton X-100 0.1%, supplemented with anti-protease and anti-phosphatase (Complete-Mini™—Roche)) thanks to a magnetic rack (DynaMag-2 Ref 12321D Life Technologies). 800 μg of proteins were mixed with 100 μL of diluted beads and the final volume was set to 800 μL with Bead buffer. The proteins and the beads were incubated 30 minutes with rotation in a cold room. Using a magnetic rack, the beads were separated from the protein extract and washed three time with Bead buffer before to be resuspended in 75 μL of Laemmli2X. Laemmli with beads was put 5 minutes at 95° C. to eluate the proteins and the beads were discarded using a magnetic rack. 35 μL of the eluted proteins were subjected to SDS-PAGE and silver coloration (ProteoSilver™ Silver Stain Kit—Sigma Aldrich). Bands of interest were extracted from the gel and subjected to mass spectrometry.
(§3) Mass spectrometric identification and quantification of the pulled down proteins were performed as previously described (Shrivastava et al., EMBO, 2019, 38:e99871). The raw data were cleaned using the following pathway. First, only the proteins found to interact with the NFX coupled beads in the three replicates were kept for further analysis. […] The final proteins were then classified based on the fold chance and the p-value.
(§4) Identification of the NFX intracellular targets is a crucial step in understanding its mechanisms of action and to be able to improve its efficiency on a rational basis. To purify NFX-binding proteins, affinity chromatography purification was performed using magnetic beads. Protein extracts from human fibroblasts were incubated with magnetic beads alone or to which NFX has been covalently coupled (Scheme 1). Eluted fractions were subjected to SDS-PAGE electrophoresis and silver staining (FIG. 9A). The pattern was clearly different between eluted proteins from NFX-beads compared to those eluted form beads alone with 13 bands either appeared or were of a higher intensity with the NFX-beads (FIG. 9B). Excised bands were subjected to proteolytic digestion and mass spectrometry.

[2] = biological target: T2, Mitogen-activated protein kinase (MAP4K4) (Homo sapiens, UniProt O95819)
T2 construct: Protein extracts from human fibroblasts were incubated with magnetic beads; endogenous in cells; host or cells: human fibroblast lysate
T2 sequence (O95819 whole entry): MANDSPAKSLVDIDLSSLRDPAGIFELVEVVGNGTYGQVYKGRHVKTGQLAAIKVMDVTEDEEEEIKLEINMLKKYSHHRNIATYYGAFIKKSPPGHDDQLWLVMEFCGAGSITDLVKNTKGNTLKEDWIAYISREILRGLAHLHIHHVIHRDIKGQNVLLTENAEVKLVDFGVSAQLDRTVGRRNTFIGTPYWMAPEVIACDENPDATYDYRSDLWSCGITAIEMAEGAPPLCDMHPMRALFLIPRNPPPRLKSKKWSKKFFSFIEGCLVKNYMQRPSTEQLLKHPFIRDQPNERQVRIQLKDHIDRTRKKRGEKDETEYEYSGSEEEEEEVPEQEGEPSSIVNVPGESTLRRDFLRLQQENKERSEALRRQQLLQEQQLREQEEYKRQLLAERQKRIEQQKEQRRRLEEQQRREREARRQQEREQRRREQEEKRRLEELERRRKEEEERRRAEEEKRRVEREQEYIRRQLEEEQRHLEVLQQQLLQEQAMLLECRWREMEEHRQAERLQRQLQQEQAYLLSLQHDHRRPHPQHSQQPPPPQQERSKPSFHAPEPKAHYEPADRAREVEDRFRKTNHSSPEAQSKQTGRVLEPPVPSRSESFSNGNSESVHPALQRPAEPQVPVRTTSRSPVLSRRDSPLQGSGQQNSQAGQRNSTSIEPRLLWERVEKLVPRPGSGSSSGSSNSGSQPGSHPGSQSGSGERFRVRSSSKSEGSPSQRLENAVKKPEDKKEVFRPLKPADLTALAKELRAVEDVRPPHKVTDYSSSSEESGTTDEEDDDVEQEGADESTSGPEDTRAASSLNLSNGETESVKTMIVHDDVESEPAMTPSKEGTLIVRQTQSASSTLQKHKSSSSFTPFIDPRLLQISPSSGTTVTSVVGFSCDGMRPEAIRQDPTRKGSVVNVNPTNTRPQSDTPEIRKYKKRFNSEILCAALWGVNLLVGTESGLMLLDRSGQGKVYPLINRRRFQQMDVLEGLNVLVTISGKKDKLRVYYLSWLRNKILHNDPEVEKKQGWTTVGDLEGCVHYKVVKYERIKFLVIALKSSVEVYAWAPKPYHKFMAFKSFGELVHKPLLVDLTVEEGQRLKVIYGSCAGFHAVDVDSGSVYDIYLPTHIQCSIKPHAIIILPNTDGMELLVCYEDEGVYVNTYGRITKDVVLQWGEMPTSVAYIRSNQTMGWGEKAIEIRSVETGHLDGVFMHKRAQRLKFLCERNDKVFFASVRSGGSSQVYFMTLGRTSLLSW
Description: as §1, §2, §3, §4

[3] = biological target: T3, Myotubularin-related protein 5 (SBF1) (Homo sapiens, UniProt O95248)
T3 construct: Protein extracts from human fibroblasts were incubated with magnetic beads; endogenous in cells; host or cells: human fibroblast lysate
T3 sequence (O95248 whole entry): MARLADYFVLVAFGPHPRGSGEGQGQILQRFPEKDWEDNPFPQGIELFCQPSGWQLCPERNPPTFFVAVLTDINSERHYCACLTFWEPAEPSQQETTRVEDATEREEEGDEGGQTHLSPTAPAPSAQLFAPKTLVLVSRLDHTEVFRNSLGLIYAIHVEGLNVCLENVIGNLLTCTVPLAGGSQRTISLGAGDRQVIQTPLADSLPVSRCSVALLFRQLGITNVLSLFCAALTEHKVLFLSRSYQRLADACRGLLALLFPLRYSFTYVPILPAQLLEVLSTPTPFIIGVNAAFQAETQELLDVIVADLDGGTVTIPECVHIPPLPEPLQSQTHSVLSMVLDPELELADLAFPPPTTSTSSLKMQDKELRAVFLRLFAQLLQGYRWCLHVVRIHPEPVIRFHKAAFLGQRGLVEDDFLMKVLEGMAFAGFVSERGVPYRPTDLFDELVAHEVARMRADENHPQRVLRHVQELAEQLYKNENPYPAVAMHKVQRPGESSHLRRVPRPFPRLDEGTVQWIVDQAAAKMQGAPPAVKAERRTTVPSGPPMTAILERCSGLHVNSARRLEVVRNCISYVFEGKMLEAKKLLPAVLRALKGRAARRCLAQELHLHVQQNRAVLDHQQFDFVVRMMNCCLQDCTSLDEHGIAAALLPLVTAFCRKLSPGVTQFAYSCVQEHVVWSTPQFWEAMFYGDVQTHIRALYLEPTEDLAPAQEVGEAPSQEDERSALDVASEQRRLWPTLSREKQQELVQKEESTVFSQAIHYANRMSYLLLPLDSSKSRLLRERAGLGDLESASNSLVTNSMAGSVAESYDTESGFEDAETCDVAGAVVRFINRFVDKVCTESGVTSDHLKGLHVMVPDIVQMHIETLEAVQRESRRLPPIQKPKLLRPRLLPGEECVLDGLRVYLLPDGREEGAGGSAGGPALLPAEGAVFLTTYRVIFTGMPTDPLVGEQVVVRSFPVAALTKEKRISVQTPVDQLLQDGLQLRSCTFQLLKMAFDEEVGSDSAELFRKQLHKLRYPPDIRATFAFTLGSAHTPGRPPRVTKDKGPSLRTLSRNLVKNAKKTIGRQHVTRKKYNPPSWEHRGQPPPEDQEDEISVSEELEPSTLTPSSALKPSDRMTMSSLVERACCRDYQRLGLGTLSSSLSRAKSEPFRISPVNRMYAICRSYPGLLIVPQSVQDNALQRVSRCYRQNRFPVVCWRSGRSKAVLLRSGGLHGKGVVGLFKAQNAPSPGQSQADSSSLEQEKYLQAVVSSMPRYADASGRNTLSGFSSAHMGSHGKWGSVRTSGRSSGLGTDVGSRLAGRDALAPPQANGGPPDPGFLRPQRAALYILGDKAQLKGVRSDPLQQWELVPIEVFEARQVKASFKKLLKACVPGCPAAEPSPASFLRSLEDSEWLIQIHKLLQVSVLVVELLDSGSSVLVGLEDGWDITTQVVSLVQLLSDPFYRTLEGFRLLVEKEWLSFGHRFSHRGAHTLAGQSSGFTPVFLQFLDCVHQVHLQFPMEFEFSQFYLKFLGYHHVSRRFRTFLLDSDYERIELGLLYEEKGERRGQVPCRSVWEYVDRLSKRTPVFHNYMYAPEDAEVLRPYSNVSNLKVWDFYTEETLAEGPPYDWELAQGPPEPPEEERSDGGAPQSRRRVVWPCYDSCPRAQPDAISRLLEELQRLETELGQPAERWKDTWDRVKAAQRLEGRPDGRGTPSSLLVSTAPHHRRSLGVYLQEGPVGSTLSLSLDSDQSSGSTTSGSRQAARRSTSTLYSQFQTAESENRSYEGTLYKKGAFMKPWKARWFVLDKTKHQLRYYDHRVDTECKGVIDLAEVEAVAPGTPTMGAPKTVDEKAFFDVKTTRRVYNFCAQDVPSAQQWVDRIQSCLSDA
Description: as §1, §2, §3, §4

[4] = biological target: T4, Pleckstrin homology-like domain family B member 2 (PHLDB2) (Homo sapiens, UniProt Q86SQ0)
T4 construct: Protein extracts from human fibroblasts were incubated with magnetic beads; endogenous in cells; host or cells: human fibroblast lysate
T4 sequence (Q86SQ0 1-1253): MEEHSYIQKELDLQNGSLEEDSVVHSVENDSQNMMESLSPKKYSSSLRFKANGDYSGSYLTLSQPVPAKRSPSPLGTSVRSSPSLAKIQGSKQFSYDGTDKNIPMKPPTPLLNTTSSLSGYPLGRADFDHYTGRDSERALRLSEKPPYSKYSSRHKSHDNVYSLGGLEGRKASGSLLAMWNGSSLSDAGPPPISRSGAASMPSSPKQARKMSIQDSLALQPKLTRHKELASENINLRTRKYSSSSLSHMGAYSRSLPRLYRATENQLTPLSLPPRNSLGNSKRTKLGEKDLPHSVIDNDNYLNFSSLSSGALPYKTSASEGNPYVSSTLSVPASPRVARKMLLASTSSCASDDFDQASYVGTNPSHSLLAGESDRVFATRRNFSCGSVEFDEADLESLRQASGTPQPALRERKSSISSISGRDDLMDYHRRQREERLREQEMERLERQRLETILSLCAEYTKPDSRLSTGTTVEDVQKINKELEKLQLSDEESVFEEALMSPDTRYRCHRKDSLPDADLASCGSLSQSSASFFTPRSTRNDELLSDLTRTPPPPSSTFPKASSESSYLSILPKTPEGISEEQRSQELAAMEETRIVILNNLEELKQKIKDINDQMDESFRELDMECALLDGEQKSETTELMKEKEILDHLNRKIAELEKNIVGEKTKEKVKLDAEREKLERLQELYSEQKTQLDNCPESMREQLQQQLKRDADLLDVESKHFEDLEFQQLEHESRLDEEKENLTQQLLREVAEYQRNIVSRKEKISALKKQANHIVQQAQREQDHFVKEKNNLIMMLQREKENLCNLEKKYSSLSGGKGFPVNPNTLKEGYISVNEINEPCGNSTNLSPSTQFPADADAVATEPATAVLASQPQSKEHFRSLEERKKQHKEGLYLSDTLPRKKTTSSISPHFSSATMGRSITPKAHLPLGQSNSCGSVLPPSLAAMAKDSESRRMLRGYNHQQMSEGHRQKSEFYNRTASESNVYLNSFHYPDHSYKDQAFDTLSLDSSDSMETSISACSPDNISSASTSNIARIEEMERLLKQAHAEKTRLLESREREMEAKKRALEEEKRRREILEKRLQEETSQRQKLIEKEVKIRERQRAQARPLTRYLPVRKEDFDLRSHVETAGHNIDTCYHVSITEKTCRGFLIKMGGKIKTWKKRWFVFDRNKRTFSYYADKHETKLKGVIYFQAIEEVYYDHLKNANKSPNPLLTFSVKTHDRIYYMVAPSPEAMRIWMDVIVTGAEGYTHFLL
Description: as §1, §2, §3, §4

[5] = biological target: T5, RNA-splicing ligase RtcB homolog (RTCB) (Homo sapiens, UniProt Q9Y3I0)
T5 construct: Protein extracts from human fibroblasts were incubated with magnetic beads; endogenous in cells; host or cells: human fibroblast lysate
T5 sequence (Q9Y3I0 1-505): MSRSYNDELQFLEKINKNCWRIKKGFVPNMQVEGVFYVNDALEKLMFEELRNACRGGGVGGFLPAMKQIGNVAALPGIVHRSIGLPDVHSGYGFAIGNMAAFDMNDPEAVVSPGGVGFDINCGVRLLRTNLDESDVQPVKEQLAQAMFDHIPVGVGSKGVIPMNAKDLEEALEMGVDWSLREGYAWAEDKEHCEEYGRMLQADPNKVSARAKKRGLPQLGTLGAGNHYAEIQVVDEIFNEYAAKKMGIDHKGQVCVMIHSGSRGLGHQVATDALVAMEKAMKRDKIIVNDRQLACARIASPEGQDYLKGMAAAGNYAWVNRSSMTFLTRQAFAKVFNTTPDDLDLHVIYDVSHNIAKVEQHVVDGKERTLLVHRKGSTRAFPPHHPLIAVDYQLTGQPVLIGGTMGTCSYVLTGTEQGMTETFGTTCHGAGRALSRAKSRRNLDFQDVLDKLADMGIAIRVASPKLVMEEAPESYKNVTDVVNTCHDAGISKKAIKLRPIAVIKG
Description: as §1, §2, §3, §4

- Fold change [1]: 386.67
- Fold change [2]: 29.76
- Fold change [3]: 41.35
- Fold change [4]: 91.67
- Fold change [5]: 40.98
SMILES: O=C(N/N=C/c1ccc([N+](=O)[O-])o1)c1ccc(O)cc1 [NFX, (E)-4-hydroxy-N′-((5-nitrofuran-2-yl)methylene)benzohydrazide]
